# ChEMBL document CHEMBL3785084, “Rational modification of the lead molecule: Enhancement in the anticancer and dihydrofolate reductase inhibitory activity” (Bioorg Med Chem Lett, 2016)
# Tests used:
# [1] = cells; settings: Homo sapiens, SK-OV-3, 48 h; for CC50: read-out: LC50
# Description: Cytotoxicity against human SKOV3 cells after 48 hrs by sulforhodamine B assay
# [2] = test system: MCF7; assay: cells; settings: Homo sapiens, MCF7, 48 h
# Description: Cytotoxicity against human MCF7 cells after 48 hrs by sulforhodamine B assay
# [3] = test system: ACHN; assay: cells; settings: Homo sapiens, 48 h; for CC50: read-out: LC50
# Description: Cytotoxicity against human ACHN cells after 48 hrs by sulforhodamine B assay
# [4] = test system: 786-0; assay: cells; settings: Homo sapiens, 786-0, 48 h; for CC50: read-out: LC50
# Description: Cytotoxicity against human 786-0 cells after 48 hrs by sulforhodamine B assay
# [5] = cells; settings: Homo sapiens, SW-620, 48 h; for CC50: read-out: LC50
# Description: Cytotoxicity against human SW620 cells after 48 hrs by sulforhodamine B assay
# [6] = cells; settings: Homo sapiens, OVCAR-3, 48 h; for CC50: read-out: LC50
# Description: Cytotoxicity against human OVCAR3 cells after 48 hrs by sulforhodamine B assay
# [7] = test system: SN12C; assay: cells; settings: Homo sapiens, 48 h; for CC50: read-out: LC50
# Description: Cytotoxicity against human SN12C cells after 48 hrs by sulforhodamine B assay
# [8] = cells; settings: Homo sapiens, TK-10, 48 h; for CC50: read-out: LC50
# Description: Cytotoxicity against human TK10 cells after 48 hrs by sulforhodamine B assay
# [9] = cells; settings: Homo sapiens, HCT-15, 48 h; for CC50: read-out: LC50
# Description: Cytotoxicity against human HCT15 cells after 48 hrs by sulforhodamine B assay
# [10] = test system: SK-MEL-5; assay: cells; settings: Homo sapiens, SK-MEL-5, 48 h; for CC50: read-out: LC50
# Description: Cytotoxicity against human SK-MEL-5 cells after 48 hrs by sulforhodamine B assay
# [11] = cells; settings: Homo sapiens, HL-60, 48 h; for CC50: read-out: LC50
# Description: Cytotoxicity against human HL-60(TB) cells after 48 hrs by sulforhodamine B assay
# [12] = cells; settings: Homo sapiens, IGROV-1, 48 h; for CC50: read-out: LC50
# Description: Cytotoxicity against human IGROV1 cells after 48 hrs by sulforhodamine B assay
# [13] = cells; settings: Homo sapiens, UACC-257, 48 h; for CC50: read-out: LC50
# Description: Cytotoxicity against human UACC257 cells after 48 hrs by sulforhodamine B assay
# [14] = cells; settings: Homo sapiens, OVCAR-4, 48 h
# Description: Cytotoxicity against human OVCAR4 cells after 48 hrs by sulforhodamine B assay
# [15] = test system: MDA-MB-231; assay: cells; settings: Homo sapiens, MDA-MB-231, 48 h; for CC50: read-out: LC50
# Description: Cytotoxicity against human MDA-MB-231 cells after 48 hrs by sulforhodamine B assay
# [16] = cells; settings: Homo sapiens, SNB-75, 48 h; for CC50: read-out: LC50
# Description: Cytotoxicity against human SNB75 cells after 48 hrs by sulforhodamine B assay
# [17] = cells; settings: Homo sapiens, RXF 393, 48 h; for CC50: read-out: LC50
# Description: Cytotoxicity against human RXF393 cells after 48 hrs by sulforhodamine B assay
# [18] = test system: NCI-H23; assay: cells; settings: Homo sapiens, NCI-H23, 48 h; for CC50: read-out: LC50
# Description: Cytotoxicity against human NCI-H23 cells after 48 hrs by sulforhodamine B assay
# [19] = test system: NCI-H522; assay: cells; settings: Homo sapiens, NCI-H522, 48 h
# Description: Cytotoxicity against human NCI-H522 cells after 48 hrs by sulforhodamine B assay
# [20] = test system: CCRF-CEM; assay: cells; settings: Homo sapiens, 48 h; for CC50: read-out: LC50
# Description: Cytotoxicity against human CCRF-CEM cells after 48 hrs by sulforhodamine B assay
# [21] = cells; settings: Homo sapiens, OVCAR-5, 48 h; for CC50: read-out: LC50
# Description: Cytotoxicity against human OVCAR5 cells after 48 hrs by sulforhodamine B assay
# [22] = cells; settings: Homo sapiens, HCT-116, 48 h; for CC50: read-out: LC50
# Description: Cytotoxicity against human HCT116 cells after 48 hrs by sulforhodamine B assay
# [23] = test system: K562; assay: cells; settings: Homo sapiens, K562, 48 h; for CC50: read-out: LC50
# Description: Cytotoxicity against human K562 cells after 48 hrs by sulforhodamine B assay
# [24] = test system: MDA-MB-468; assay: cells; settings: Homo sapiens, MDA-MB-468, 48 h; for CC50: read-out: LC50
# Description: Cytotoxicity against human MDA-MB-468 cells after 48 hrs by sulforhodamine B assay
# [25] = Cytotoxicity against human Hs 578T cells after 48 hrs by sulforhodamine B assay; assay type: functional; settings: for CC50: read-out: LC50 (the source's name)
# [26] = test system: NCI-H226; assay: cells; settings: Homo sapiens, NCI-H226, 48 h; for CC50: read-out: LC50
# Description: Cytotoxicity against human NCI-H226 cells after 48 hrs by sulforhodamine B assay
# [27] = cells; settings: Homo sapiens, HOP-62, 48 h; for CC50: read-out: LC50
# Description: Cytotoxicity against human HOP62 cells after 48 hrs by sulforhodamine B assay
# [28] = cells; settings: Homo sapiens, SF-268, 48 h; for CC50: read-out: LC50
# Description: Cytotoxicity against human SF268 cells after 48 hrs by sulforhodamine B assay
# [29] = test system: A498; assay: cells; settings: Homo sapiens, A498, 48 h; for CC50: read-out: LC50
# Description: Cytotoxicity against human A498 cells after 48 hrs by sulforhodamine B assay
# [30] = cells; settings: Homo sapiens, HOP-92, 48 h; for CC50: read-out: LC50
# Description: Cytotoxicity against human HOP92 cells after 48 hrs by sulforhodamine B assay
# [31] = test system: EKVX; assay: cells; settings: Homo sapiens, 48 h; for CC50: read-out: LC50
# Description: Cytotoxicity against human EKVX cells after 48 hrs by sulforhodamine B assay
# [32] = test system: MDA-MB-435; assay: cells; settings: Homo sapiens, MDA-MB-435, 48 h; for CC50: read-out: LC50
# Description: Cytotoxicity against human MDA-MB-435 cells after 48 hrs by sulforhodamine B assay
# [33] = cells; settings: Homo sapiens, UACC-62, 48 h; for CC50: read-out: LC50
# Description: Cytotoxicity against human UACC62 cells after 48 hrs by sulforhodamine B assay
# [34] = test system: Malme-3M; assay: cells; settings: Homo sapiens, 48 h; for CC50: read-out: LC50
# Description: Cytotoxicity against human MALME-3M cells after 48 hrs by sulforhodamine B assay
# [35] = cells; settings: Homo sapiens, RPMI-8226, 48 h; for CC50: read-out: LC50
# Description: Cytotoxicity against human RPMI8226 cells after 48 hrs by sulforhodamine B assay
# [36] = cells; settings: Homo sapiens, CAKI-1, 48 h; for CC50: read-out: LC50
# Description: Cytotoxicity against human Caki1 cells after 48 hrs by sulforhodamine B assay
smiles,measurement,setting,value
COc1cc(/C=C2\C(=O)Nc3ccccc32)cc(OC)c1O,GI50,[1],3.9 µM
same,TGI,[1],21.3 µM
same,CC50,[1],> 100 µM
same,GI50,[2],0.7 µM
same,TGI,[2],15.1 µM
same,CC50,[2]; read-out: LC50,> 100 µM
same,GI50,[3],4.7 µM
same,TGI,[3],22.3 µM
same,CC50,[3],83.2 µM
same,GI50,[4],7.1 µM
same,TGI,[4],27.5 µM
same,CC50,[4],91.2 µM
same,GI50,[5],3.2 µM
same,TGI,[5],13.2 µM
same,CC50,[5],36.7 µM
same,GI50,[6],2 µM
same,TGI,[6],5 µM
same,CC50,[6],22.3 µM
same,GI50,[7],3.6 µM
same,TGI,[7],23.4 µM
same,CC50,[7],> 100 µM
same,GI50,[8],7.1 µM
same,TGI,[8],37.1 µM
same,CC50,[8],> 100 µM
same,GI50,[9],3.2 µM
same,TGI,[9],15.1 µM
same,CC50,[9],64.5 µM
same,GI50,[10],2.9 µM
same,TGI,[10],10.7 µM
same,CC50,[10],33.1 µM
same,GI50,[11],2.8 µM
same,TGI,[11],11.2 µM
same,CC50,[11],> 100 µM
same,GI50,[12],3.7 µM
same,TGI,[12],20.4 µM
same,CC50,[12],85.1 µM
same,GI50,[13],1.8 µM
same,TGI,[13],18.6 µM
same,CC50,[13],67.6 µM
same,GI50,[14],4.9 µM
same,TGI,[14],31.6 µM
same,CC50,[14]; read-out: LC50,> 100 µM
same,GI50,[15],3.1 µM
same,TGI,[15],20.8 µM
same,CC50,[15],> 100 µM
same,GI50,[16],11.7 µM
same,TGI,[16],8.5 µM
same,CC50,[16],> 100 µM
same,GI50,[17],2.5 µM
same,TGI,[17],8.3 µM
same,CC50,[17],30.9 µM
same,GI50,[18],5 µM
same,TGI,[18],33.8 µM
same,CC50,[18],> 100 µM
same,GI50,[19],1.7 µM
same,TGI,[19],5.1 µM
same,CC50,[19]; read-out: LC50,22.9 µM
same,GI50,[20],5.1 µM
same,TGI,[20],> 100 µM
same,CC50,[20],> 100 µM
same,GI50,[21],4.7 µM
same,TGI,[21],18.6 µM
same,CC50,[21],52.4 µM
same,GI50,[22],3.3 µM
same,TGI,[22],13.4 µM
same,CC50,[22],37.1 µM
same,GI50,[23],2.1 µM
same,TGI,[23],> 100 µM
same,CC50,[23],> 100 µM
same,GI50,[24],1.5 µM
same,TGI,[24],7.7 µM
same,CC50,[24],63.1 µM
same,GI50,[25],1.8 µM
same,TGI,[25],6.1 µM
same,CC50,[25],> 100 µM
same,GI50,[26],17.7 µM
same,TGI,[26],> 100 µM
same,CC50,[26],> 100 µM
same,GI50,[27],4.3 µM
same,TGI,[27],23.4 µM
same,CC50,[27],> 100 µM
same,GI50,[28],4.3 µM
same,TGI,[28],28.8 µM
same,CC50,[28],> 100 µM
same,GI50,[29],2.1 µM
same,TGI,[29],15.8 µM
same,CC50,[29],> 100 µM
same,GI50,[30],4.2 µM
same,TGI,[30],48.9 µM
same,CC50,[30],> 100 µM
same,GI50,[31],4.9 µM
same,TGI,[31],47.8 µM
same,CC50,[31],> 100 µM
same,GI50,[32],0.6 µM
same,TGI,[32],2.2 µM
same,CC50,[32],6 µM
same,GI50,[33],2.6 µM
same,TGI,[33],11.2 µM
same,CC50,[33],35.4 µM
same,GI50,[34],2.9 µM
same,TGI,[34],21.8 µM
same,CC50,[34],> 100 µM
same,GI50,[35],5.5 µM
same,TGI,[35],27.5 µM
same,CC50,[35],> 100 µM
same,GI50,[36],2.9 µM
same,TGI,[36],25.1 µM
same,CC50,[36],> 100 µM
O=C1Nc2ccccc2/C1=C/c1cn(CC(O)Cn2cc(/C=C3\C(=O)Nc4ccccc43)c3ccccc32)c2ccccc12 (stereo not drawn),GI50,[1],1.6 µM
same,TGI,[1],3.6 µM
same,CC50,[1],8.1 µM
same,GI50,[2],0.45 µM
same,TGI,[2],1.8 µM
same,GI50,[3],1.6 µM
same,TGI,[3],3.9 µM
same,CC50,[3],9.3 µM
same,GI50,[4],1.6 µM
same,TGI,[4],3.2 µM
same,CC50,[4],6.1 µM
same,GI50,[5],1.3 µM
same,TGI,[5],3.4 µM
same,CC50,[5],9.04 µM
same,GI50,[6],1.6 µM
same,TGI,[6],3.3 µM
same,CC50,[6],6.6 µM
same,GI50,[7],1.5 µM
same,TGI,[7],3.1 µM
same,CC50,[7],6.5 µM
same,GI50,[8],2.7 µM
same,TGI,[8],5.4 µM
same,CC50,[8],14.4 µM
same,GI50,[9],1.7 µM
same,TGI,[9],3.7 µM
same,CC50,[9],7.7 µM
same,GI50,[10],1.9 µM
same,TGI,[10],3.8 µM
same,CC50,[10],7.3 µM
same,GI50,[11],2.9 µM
same,TGI,[11],10.9 µM
same,CC50,[11],57.5 µM
same,GI50,[12],0.47 µM
same,TGI,[12],1.9 µM
same,CC50,[12],5.3 µM
same,GI50,[13],2.3 µM
same,TGI,[13],4.4 µM
same,CC50,[13],8.3 µM
same,GI50,[14],1.8 µM
same,TGI,[14],3.9 µM
same,GI50,[15],1.2 µM
same,TGI,[15],2.7 µM
same,CC50,[15],5.7 µM
same,GI50,[16],1.3 µM
same,TGI,[16],2.9 µM
same,CC50,[16],6.4 µM
same,GI50,[17],2.04 µM
same,TGI,[17],3.7 µM
same,CC50,[17],6.9 µM
same,GI50,[18],1.5 µM
same,TGI,[18],3.3 µM
same,CC50,[18],7.2 µM
same,GI50,[19],1.6 µM
same,TGI,[19],3.5 µM
same,GI50,[20],2.8 µM
same,TGI,[20],13.4 µM
same,CC50,[20],> 100 µM
same,GI50,[21],3.4 µM
same,TGI,[21],4.5 µM
same,CC50,[21],43.6 µM
same,GI50,[22],1.6 µM
same,TGI,[22],4.1 µM
same,CC50,[22],12.5 µM
same,GI50,[23],1.2 µM
same,TGI,[23],3.5 µM
same,CC50,[23],> 100 µM
same,GI50,[24],2.03 µM
same,TGI,[24],3.7 µM
same,CC50,[24],6.9 µM
same,GI50,[25],2.4 µM
same,TGI,[25],7.8 µM
same,CC50,[25],> 100 µM
same,GI50,[26],1.6 µM
same,TGI,[26],3.5 µM
same,CC50,[26],7.5 µM
same,GI50,[27],1.4 µM
same,TGI,[27],3.06 µM
same,CC50,[27],6.6 µM
same,GI50,[28],1.7 µM
same,TGI,[28],3.9 µM
same,CC50,[28],8.7 µM
same,GI50,[29],2.2 µM
same,TGI,[29],4.1 µM
same,CC50,[29],7.6 µM
same,GI50,[30],1.8 µM
same,TGI,[30],4.1 µM
same,CC50,[30],9.5 µM
same,GI50,[31],1.8 µM
same,TGI,[31],3.7 µM
same,CC50,[31],7.8 µM
same,GI50,[32],1.8 µM
same,TGI,[32],3.4 µM
same,CC50,[32],6.6 µM
same,GI50,[33],1.6 µM
same,TGI,[33],3.1 µM
same,CC50,[33],6.1 µM
same,GI50,[34],1.5 µM
same,TGI,[34],3.2 µM
same,CC50,[34],7.1 µM
same,GI50,[35],2.1 µM
same,TGI,[35],5.4 µM
same,CC50,[35],> 100 µM
same,GI50,[36],1.6 µM
same,TGI,[36],3.3 µM
same,CC50,[36],7.1 µM
